Laboratory results from patent US20230085307A1, “PYRIDAZINONE COMPOUND AND HERBICIDE” (NISSAN CHEMICAL CORPORATION, priority 2019, published 2023).

Columns and labels:
wheat = test: Test Example 4: effect on crop by soil treatment (Table 19, symbol e); assay type: in vivo; conditions: amount of applied herbicide 320 g/ha
Description: (§1) [Test Example 4] Herbicidal Effect Test by Soil Treatment
(§2) Sterilized diluvial soil was placed in a plastic box having a length of 21 cm, a width of 13 cm, and a depth of 7 cm. The seeds of each of southern crabgrass, green foxtail, barnyard grass, wild oat, blackgrass, Italian ryegrass, windgrass, velvetleaf, redroot pigweed, lambsquarters, chickweed, false cleavers, persian speedwell, corn, soybean, rice, wheat, beet, and rapeseed were sowed in a spot-like manner and covered with the soil having a thickness of about 1.5 cm. Subsequently, the emulsion agent of the compound of the present invention prepared according to Formulation Example 2 was diluted with water so as to achieve a predetermined herbicide amount, and the diluted emulsion agent was uniformly applied to the surface of the soil with a small-sized spray. The plastic box was placed in a greenhouse at 25° C. to 30° C. for growth of the plants. Three weeks after the herbicide application, the effect of the herbicide on each plant was evaluated according to the criteria of Test Example 1.

velvetleaf = test: Test Example 5: herbicidal effect by foliage application, plastic box (Table 20, symbol M); assay type: in vivo, velvetleaf (Abutilon theophrasti); conditions: foliage application, 320 g/ha, evaluated three weeks after application
Method in brief: (§3)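 Plants were sown into sterilized diluvial soil under about 1.5 cm cover and kept in a greenhouse at 25° C. to 30° C. Fourteen days on, foliage received an even spray of the diluted emulsion. Herbicidal or crop effect was judged three weeks afterwards.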

wild oat [1] = test: Test Example 4: herbicidal effect by soil treatment (Table 19, symbol I); assay type: in vivo, wild oat (Avena fatua); conditions: amount of applied herbicide 320 g/ha
Method in brief: (§4)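 In this soil treatment, the formulated compound reached the seeds only through the soil: seeds were buried about 1.5 cm deep in sterilized diluvial soil, then the diluted emulsion was sprayed over the surface. After three weeks at 25° C. to 30° C. in a greenhouse, effects were graded on criteria from an earlier test.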

beet = test: Test Example 5: effect on crop by foliage application, plastic box (Table 20, symbol f); assay type: in vivo; conditions: 320 g/ha, evaluated three weeks after application
Description: (§5) [Test Example 5] Herbicidal Effect Test by Foliage Application
as §2, with “Thereafter, the plants were grown in a greenhouse at 25° C. to 30° C. After 14-day growth of the plants,” for “Subsequently,”, “a foliage part” for “the surface of the soil”, “spray.” for “spray. The plastic box was placed in a greenhouse at 25° C. to 30° C. for growth of the plants.”

barnyard grass = test: Test Example 4: herbicidal effect by soil treatment (Table 19, symbol H); assay type: in vivo, barnyard grass (Echinochloa crus-galli); conditions: amount of applied herbicide 320 g/ha
Method in brief: as §4

Chinese sprangletop = test: Test Example 3: herbicidal effect by foliage application, Wagner pot (Table 18, symbol D); assay type: in vivo, chinese sprangletop (Leptochloa chinensis); conditions: amount of applied herbicide 320 g/ha
Method in brief: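 Plants were sown in alluvial soil held under 0.1–0.5 cm standing water and grown 14 days in a greenhouse at 25–30 °C. An emulsifiable formulation, water-diluted to the set dose, was then sprayed onto the foliage, and effects were scored three weeks later using previously defined criteria.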

Italian ryegrass [2] = test: Test Example 5: herbicidal effect by foliage application, plastic box (Table 20, symbol K); assay type: in vivo, Italian ryegrass (Lolium multiflorum); conditions: foliage application, 320 g/ha, evaluated three weeks after application
Method in brief: as §3

lambsquarters = test: Test Example 4: herbicidal effect by soil treatment (Table 19, symbol O); assay type: in vivo, lambsquarters (Chenopodium album); conditions: amount of applied herbicide 320 g/ha
Method in brief: as §4

southern crabgrass [3] = test: Test Example 4: herbicidal effect by soil treatment (Table 19, symbol F); assay type: in vivo, southern crabgrass (Digitaria ciliaris); conditions: amount of applied herbicide 320 g/ha
Method in brief: as §4

Italian ryegrass [4] = test: Test Example 4: herbicidal effect by soil treatment (Table 19, symbol K); assay type: in vivo, Italian ryegrass (Lolium multiflorum); conditions: amount of applied herbicide 320 g/ha
Method in brief: as §4

wild oat [5] = test: Test Example 5: herbicidal effect by foliage application, plastic box (Table 20, symbol I); assay type: in vivo, wild oat (Avena fatua); conditions: foliage application, 320 g/ha, evaluated three weeks after application
Method in brief: as §3

corn = test: Test Example 4: effect on crop by soil treatment (Table 19, symbol c); assay type: in vivo; conditions: amount of applied herbicide 320 g/ha
Description: as §1, §2

southern crabgrass [6] = test: Test Example 5: herbicidal effect by foliage application, plastic box (Table 20, symbol F); assay type: in vivo, southern crabgrass (Digitaria ciliaris); conditions: foliage application, 320 g/ha, evaluated three weeks after application
Method in brief: as §3

chickweed = test: Test Example 5: herbicidal effect by foliage application, plastic box (Table 20, symbol P); assay type: in vivo, common chickweed (Stellaria media); conditions: foliage application, 320 g/ha, evaluated three weeks after application
Method in brief: as §3

redroot pigweed = test: Test Example 5: herbicidal effect by foliage application, plastic box (Table 20, symbol N); assay type: in vivo, redroot pigweed (Amaranthus retroflexus); conditions: foliage application, 320 g/ha, evaluated three weeks after application
Method in brief: as §3

soybean = test: Test Example 5: effect on crop by foliage application, plastic box (Table 20, symbol d); assay type: in vivo; conditions: 320 g/ha, evaluated three weeks after application
Description: as §5
as §2, with “Thereafter, the plants were grown in a greenhouse at 25° C. to 30° C. After 14-day growth of the plants,” for “Subsequently,”, “a foliage part” for “the surface of the soil”, “spray.” for “spray. The plastic box was placed in a greenhouse at 25° C. to 30° C. for growth of the plants.”

rapeseed = test: Test Example 5: effect on crop by foliage application, plastic box (Table 20, symbol g); assay type: in vivo; conditions: 320 g/ha, evaluated three weeks after application
Description: as §5
as §2, with “Thereafter, the plants were grown in a greenhouse at 25° C. to 30° C. After 14-day growth of the plants,” for “Subsequently,”, “a foliage part” for “the surface of the soil”, “spray.” for “spray. The plastic box was placed in a greenhouse at 25° C. to 30° C. for growth of the plants.”

directly sowed rice = test: Test Example 3: effect on crop by foliage application, Wagner pot (Table 18, symbol b); assay type: in vivo; conditions: amount of applied herbicide 320 g/ha
Procedure: [Test Example 3] Herbicidal Effect Test by Foliage Application After alluvial soil was placed into 1/10000 are of Wagner pot, water was poured and mixed to form a submerged condition having a water depth of 0.1 cm to 0.5 cm. Seeds of barnyard grass, Chinese sprangletop, rice flat sedge, and rice were sowed and the pot was placed in a greenhouse at 25° C. to 30° C. for growth of the plants. After 14-day growth of the plants, the emulsion agent of the compound of the present invention prepared according to Formulation Example 2 was diluted with water so as to achieve a predetermined herbicide amount, and the diluted emulsion agent was uniformly applied to a foliage part with a small-sized spray. Three weeks after the herbicide application, the effect of the herbicide on each plant was evaluated according to the criteria of Test Example 1.

blackgrass = test: Test Example 5: herbicidal effect by foliage application, plastic box (Table 20, symbol J); assay type: in vivo, blackgrass (Alopecurus myosuroides); conditions: foliage application, 320 g/ha, evaluated three weeks after application
Method in brief: as §3

Structure (SMILES): COc1ccccc1-c1sc2ccc(C3CC3)cc2c1-c1c(O)c(C)nn(C)c1=O [Compound No. 2-160, 4-(5-cyclopropyl-2-(2-methoxyphenyl)benzo[b]thiophen-3-yl)-5-hydroxy-2,6-dimethylpyridazin-3(2H)-one]
- e: wheat, effect on crop rating (wheat): 0 (Herbicidal rate of 5% or less (almost no effect))
- herbicidal effect on M: velvetleaf (criteria 0-5) (velvetleaf): 4 (Herbicidal rate of 70% or more and less than 90%)
- I: wild oat, herbicidal effect rating (wild oat [1]): 0 (Herbicidal rate of 5% or less (almost no effect))
- effect on crop f: beet (criteria 0-5) (beet): 5 (Herbicidal rate of 90% or more (almost completely withered))
- H: barnyard grass, herbicidal effect rating (barnyard grass): 0 (Herbicidal rate of 5% or less (almost no effect))
- herbicidal effect on D: Chinese sprangletop (Chinese sprangletop): 3 (Herbicidal rate of 40% or more and less than 70%)
- herbicidal effect on K: Italian ryegrass (criteria 0-5) (Italian ryegrass [2]): 3 (Herbicidal rate of 40% or more and less than 70%)
- O: lambsquarters, herbicidal effect rating (lambsquarters): 0 (Herbicidal rate of 5% or less (almost no effect))
- F: southern crabgrass, herbicidal effect rating (southern crabgrass [3]): 0 (Herbicidal rate of 5% or less (almost no effect))
- melting point: 182 to 184 °C
- K: Italian ryegrass, herbicidal effect rating (Italian ryegrass [4]): 0 (Herbicidal rate of 5% or less (almost no effect))
- herbicidal effect on I: wild oat (criteria 0-5) (wild oat [5]): 0 (Herbicidal rate of 5% or less (almost no effect))
- c: corn, effect on crop rating (corn): 0 (Herbicidal rate of 5% or less (almost no effect))
- herbicidal effect on F: southern crabgrass (criteria 0-5) (southern crabgrass [6]): 0 (Herbicidal rate of 5% or less (almost no effect))
- herbicidal effect on P: chickweed (criteria 0-5) (chickweed): 5 (Herbicidal rate of 90% or more (almost completely withered))
- herbicidal effect on N: redroot pigweed (criteria 0-5) (redroot pigweed): 5 (Herbicidal rate of 90% or more (almost completely withered))
- effect on crop d: soybean (criteria 0-5) (soybean): 3 (Herbicidal rate of 40% or more and less than 70%)
- effect on crop g: rapeseed (criteria 0-5) (rapeseed): 5 (Herbicidal rate of 90% or more (almost completely withered))
- effect on crop b: directly sowed rice (directly sowed rice): 0 (Herbicidal rate of 5% or less (almost no effect))
- herbicidal effect on J: blackgrass (criteria 0-5) (blackgrass): 4 (Herbicidal rate of 70% or more and less than 90%)
